# In ChEMBL document CHEMBL4411300 (Eur J Med Chem, 2019):
# Calls of active or inactive are those of the source. The calls are words filed in the database; no cut-off is given here.
# Tests used:
# Trypanosoma cruzi [1] = experiment: Antitrypanosomal activity against Trypanosoma cruzi MHOM/Pe/2011/Arequipa DTU 5 trypomastigotes infected in Balb/c mouse assessed as reduction in parasitaemia level at 20 mg/kg, po once daily for 5 consecutive days starting from day 10 post infection measured on day 23 post infection by Neubauer chamber method relative to control; type: functional
# [2] = Nephrotoxicity in Balb/c mouse infected with Trypanosoma cruzi MHOM/Pe/2011/Arequipa DTU 5 trypomastigotes assessed as decrease in serum uric acid level at 20 mg/kg, po once daily for 5 consecutive days starting from day 75 post infection measured on day 127 post infection relative to control; type: toxicity, organism-based; design: scale not given: the % may be the effect or the level left; settings: in vivo
# [3] = (§1) Cardiotoxicity in Balb/c mouse infected with Trypanosoma cruzi MHOM/Pe/2011/Arequipa DTU 5 trypomastigotes assessed as change in ratio of creatine kinase in muscle to brain at 20 mg/kg, po once daily for 5 consecutive days starting from day 10 post infection measured on day 16 post infection by biochemical analysis (reference value: 535 U/L); type: toxicity, organism-based; settings: in vivo
# [4] = as §1, with “decrease” for “change”, “75” for “10”, “81” for “16”, “relative to control” for “by biochemical analysis (reference value: 535 U/L)”; type: toxicity, organism-based; design: scale not given: the % may be the effect or the level left; settings: in vivo
# [5] = (§2) Hepatotoxicity in Balb/c mouse infected with Trypanosoma cruzi MHOM/Pe/2011/Arequipa DTU 5 trypomastigotes assessed as increase in ratio of serum AST to GOT level at 20 mg/kg, po once daily for 5 consecutive days starting from day 10 post infection measured on day 16 post infection relative to control; type: toxicity, organism-based; settings: in vivo
# [6] = as §2, with “75” for “10”, “127” for “16”; type: toxicity, organism-based; settings: in vivo
# [7] = Hepatotoxicity in Balb/c mouse infected with Trypanosoma cruzi MHOM/Pe/2011/Arequipa DTU 5 trypomastigotes assessed as increase in serum ALT to GPT level at 20 mg/kg, po once daily for 5 consecutive days starting from day 10 post infection measured on day 16 post infection relative to control; type: toxicity, organism-based; settings: in vivo
# [8] = as §1, with “Hepatotoxicity” for “Cardiotoxicity”, “serum ALT” for “creatine kinase in muscle”, “GPT level” for “brain”, “127” for “16”, “49” for “535”; type: toxicity, organism-based; settings: in vivo
# [9] = (§3) Hepatotoxicity in Balb/c mouse infected with Trypanosoma cruzi MHOM/Pe/2011/Arequipa DTU 5 trypomastigotes assessed as increase in alkaline phosphatase level at 20 mg/kg, po once daily for 5 consecutive days starting from day 75 post infection measured on day 81 post infection relative to control; type: toxicity, organism-based; settings: in vivo
# Trypanosoma cruzi [10] = experiment: Trypanocidal activity against Trypanosoma cruzi MHOM/Pe/2011/Arequipa DTU 5 epimastigotes after 48 to 72 hrs by resazurin dye based assay; type: functional, organism-based
# Trypanosoma cruzi [11] = experiment: Trypanocidal activity against Trypanosoma cruzi MHOM/Pe/2011/Arequipa DTU 5 amastigotes infected in African green monkey Vero cells after 72 hrs by Giemsa-staining based microscopic assay; type: functional, organism-based; settings: MHOM/Pe/2011/Arequipa DTU 5, Vero
# Trypanosoma cruzi [12] = experiment: Trypanocidal activity against Trypanosoma cruzi MHOM/Pe/2011/Arequipa DTU 5 trypomastigotes derived from infected Balb/c albino mouse after 24 hrs by resazurin dye based assay; type: functional, organism-based; settings: MHOM/Pe/2011/Arequipa DTU 5, 24 h
# Trypanosoma cruzi [13] = experiment: Trypanocidal activity against Trypanosoma cruzi IRHOD/CO/2008/SN3 DTU 1 epimastigotes after 48 to 72 hrs by resazurin dye based assay; type: functional, organism-based
# Trypanosoma cruzi [14] = experiment: Trypanocidal activity against Trypanosoma cruzi TINF/CH/1956/Tulahuen DTU 6 epimastigotes after 48 to 72 hrs by resazurin dye based assay; type: functional, organism-based
# Trypanosoma cruzi [15] = experiment: Trypanocidal activity against Trypanosoma cruzi TINF/CH/1956/Tulahuen DTU 6 amastigotes infected in African green monkey Vero cells after 72 hrs by Giemsa-staining based microscopic assay; type: functional, organism-based; settings: TINF/CH/1956/Tulahuen DTU 6, Vero
# Trypanosoma cruzi [16] = experiment: Trypanocidal activity against Trypanosoma cruzi TINF/CH/1956/Tulahuen DTU 6 trypomastigotes derived from infected Balb/c albino mouse after 24 hrs by resazurin dye based assay; type: functional, organism-based; settings: TINF/CH/1956/Tulahuen DTU 6, 24 h
# Vero = experiment: Cytotoxicity against African green monkey Vero cells assessed as reduction in cell viability after 48 to 72 hrs by resazurin dye based assay; settings: Chlorocebus sabaeus
# [17] = Selectivity index, ratio of IC50 for African green monkey Vero cells to IC50 for Trypanosoma cruzi MHOM/Pe/2011/Arequipa DTU 5 trypomastigotes derived from infected Balb/c albino mouse; type: toxicity; settings: read-out: Ratio IC50
# [18] = Selectivity index, ratio of IC50 for African green monkey Vero cells to IC50 for Trypanosoma cruzi IRHOD/CO/2008/SN3 DTU 1 amastigotes infected in African green monkey Vero cells; type: toxicity; settings: read-out: Ratio IC50
# [19] = Selectivity index, ratio of IC50 for African green monkey Vero cells to IC50 for Trypanosoma cruzi TINF/CH/1956/Tulahuen DTU 6 epimastigotes; type: toxicity; settings: read-out: Ratio IC50
# [20] = Selectivity index, ratio of IC50 for African green monkey Vero cells to IC50 for Trypanosoma cruzi TINF/CH/1956/Tulahuen DTU 6 trypomastigotes derived from infected Balb/c albino mouse; type: toxicity; settings: read-out: Ratio IC50
# Trypanosoma cruzi [21] = experiment: Trypanocidal activity against Trypanosoma cruzi MHOM/Pe/2011/Arequipa DTU 5 amastigotes infected in African green monkey Vero cells assessed as reduction in infected cells after 72 hrs by Giemsa-staining based assay; type: functional, organism-based; settings: MHOM/Pe/2011/Arequipa DTU 5, Vero
# [22] = Toxicity in Balb/c mouse assessed as death at 20 mg/kg, po once daily for 5 consecutive days starting from day 10 post infection; type: organism-based; settings: in vivo
# Trypanosoma cruzi [23] = experiment: Antitrypanosomal activity against Trypanosoma cruzi MHOM/Pe/2011/Arequipa DTU 5 trypomastigotes infected in Balb/c mouse assessed as reduction in Ig-G level in serum at 20 mg/kg, po once daily for 5 consecutive days starting from day 10 post infection measured on day 16 post infection by ELISA; type: functional, organism-based
# Trypanosoma cruzi [24] = experiment: Antitrypanosomal activity against Trypanosoma cruzi MHOM/Pe/2011/Arequipa DTU 5 trypomastigotes infected in Balb/c mouse assessed as reduction in Ig-G level in serum at 20 mg/kg, po once daily for 5 consecutive days starting from day 75 post infection measured on day 81 post infection by ELISA; type: functional, organism-based
# Trypanosoma cruzi [25] = experiment: Antitrypanosomal activity against Trypanosoma cruzi MHOM/Pe/2011/Arequipa DTU 5 trypomastigotes infected in Balb/c mouse assessed as reduction in Ig-G level in serum at 20 mg/kg, po pretreated once daily for 5 consecutive days starting from day 75 post infection followed by cyclophosphamide-induced immunosuppression on day 100 post infection every 4 days for a maximum of 3 doses measured on day 127 post infection by ELISA; type: functional, organism-based
# Trypanosoma cruzi [26] = experiment: Antitrypanosomal activity against Trypanosoma cruzi MHOM/Pe/2011/Arequipa DTU 5 epimastigotes assessed as effect on parasite glycolytic pathway by measuring increase in glycerol excretion at IC25 after 72 hrs by 1H NMR method; type: functional, organism-based
# Trypanosoma cruzi [27] = experiment: Antitrypanosomal activity against Trypanosoma cruzi MHOM/Pe/2011/Arequipa DTU 5 epimastigotes assessed as effect on parasite glycolytic pathway by measuring decrease in D-lactate excretion at IC25 after 72 hrs by 1H NMR method; type: functional, organism-based
# Trypanosoma cruzi [28] = experiment: Antitrypanosomal activity against Trypanosoma cruzi MHOM/Pe/2011/Arequipa DTU 5 epimastigotes assessed as effect on parasite glycolytic pathway by measuring decrease in ethanol excretion at IC25 after 72 hrs by 1H NMR method; type: functional; design: scale not given: the % may be the effect or the level left
# [29] = target: Superoxide dismutase [Cu-Zn] (Homo sapiens, UniProt P00441); experiment: Inhibition of human erythrocyte CuZn-SOD by UV-Visible spectrophotometric method
# Sequence of Superoxide dismutase [Cu-Zn] (P00441 whole entry): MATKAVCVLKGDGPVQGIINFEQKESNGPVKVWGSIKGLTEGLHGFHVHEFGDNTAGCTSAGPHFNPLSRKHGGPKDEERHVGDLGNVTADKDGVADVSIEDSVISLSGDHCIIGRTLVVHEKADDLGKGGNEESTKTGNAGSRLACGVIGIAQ
# [30] = Hepatotoxicity in Balb/c mouse infected with Trypanosoma cruzi MHOM/Pe/2011/Arequipa DTU 5 trypomastigotes assessed as decrease in ratio of serum ALT to GPT level at 20 mg/kg, po once daily for 5 consecutive days starting from day 75 post infection measured on day 81 post infection relative to control; type: toxicity, organism-based; design: scale not given: the % may be the effect or the level left; settings: in vivo
# [31] = as §3, with “change” for “increase”, “127” for “81”, “(reference value: 149 U/L)” for “relative to control”; type: toxicity, organism-based; settings: in vivo
Structure (SMILES),Activity (Trypanosoma cruzi [1]),Activity [2],Activity [3],Activity [4],Activity [5],Activity [6],Activity [7],Activity [8],Activity [9],IC50 (Trypanosoma cruzi [10]),IC50 (Trypanosoma cruzi [11]),IC50 (Trypanosoma cruzi [12]),IC50 (Trypanosoma cruzi [13]),IC50 (Trypanosoma cruzi [14]),IC50 (Trypanosoma cruzi [15]),IC50 (Trypanosoma cruzi [16]),IC50 (Vero),selectivity ratio [17],selectivity ratio [18],selectivity ratio [19],other results
O=C(Cn1ccnc1[N+](=O)[O-])NCc1ccccc1 [BENZNIDAZOLE],Active,<= 10%,535 U/L,<= 10%,> 40%,<= 10%,> 40%,49 U/L,> 40%,,,,,,,,,,,,
Cl.Cl.Cl.NCCN(CCN)CCNCc1ccc2c(c1)Cc1ccccc1-2,72%,<= 10%,,<= 10%,> 40%,,,49 U/L,,26.6 µM,4.8 µM,14.7 µM,19.3 µM,30.7 µM,15.1 µM,17.6 µM,1770 µM,120,89.6,57.5,selectivity ratio [20]: 100; IC50 (Trypanosoma cruzi [21]): 8 µM; Activity [22]: Non-Toxic; Activity (Trypanosoma cruzi [23]): Active; Activity (Trypanosoma cruzi [24]): inactive; Activity (Trypanosoma cruzi [25]): Active; Activity (Trypanosoma cruzi [26]): Active; Activity (Trypanosoma cruzi [27]): Active; Activity (Trypanosoma cruzi [28]): 31%; IC50 [29]: > 100 µM; Activity [30]: <= 10%; Activity [31]: 149 U/L
Cl.Cl.Cl.Cl.Cl.Cl.c1ccc2nc(CNCCN(CCNCc3ccc4ccccc4n3)CCNCc3ccc4ccccc4n3)ccc2c1,,,535 U/L,,,<= 10%,> 40%,,<= 20%,15.1 µM,2.4 µM,1.2 µM,14 µM,19.5 µM,2.3 µM,1.9 µM,1560 µM,1360,1020,84.8,selectivity ratio [20]: 890; IC50 (Trypanosoma cruzi [21]): 3.6 µM; Activity [22]: Non-Toxic; Activity (Trypanosoma cruzi [23]): inactive; Activity (Trypanosoma cruzi [24]): inactive; Activity (Trypanosoma cruzi [25]): inactive; Activity (Trypanosoma cruzi [26]): Active; Activity (Trypanosoma cruzi [27]): Active; Activity (Trypanosoma cruzi [28]): 38%; IC50 [29]: > 100 µM; Activity [30]: <= 10%; Activity [31]: 149 U/L
